Marks after values point to notes of the source that are not given here.
How the values were obtained:
[1] = test system: Scn1a+/− mouse model of DS; design: method as in Anderson et al., 2021a; Anderson et al., 2021b; details: Scn1a+/− mice, ref Anderson et al., 2021a, 2021b; cited from earlier work
[2] = molecular target: T1, human NaV1.1 channel (SCN1A, HEK293T cells) (Homo sapiens, UniProt P35498); test: Planar patch-clamp, inhibition of peak sodium current (IC50 protocol); assay type: cell-based; details: NaV1.1; 0.1–100 μM, no maximal inhibition at 100 µM
T1 construct: expressed in transfected cells
Method: (§1) HEK293T cells stably expressing SCN1A or SCN2A and CHO cells stably expressing SCN8A or SCN9A were maintained as previously described ([Richards et al., 2018]; [Milligan et al., 2022]).
(§2) Patch-clamp recordings were made using a Patchliner® (Nanion Technologies, Munich, Germany) in the whole-cell configuration as previously described ([Richards et al., 2018]; [Milligan et al., 2022]). Briefly, cells were prepared in suspension at a density of 1 × 10^6-5 × 10^7 cells/mL. The external recording solution comprised (in mM): 140 NaCl, 4 KCl, 1 MgCl2, 2 CaCl2, 5 D-glucose, 10 HEPES, pH 7.4 with NaOH, ∼295 mOsm. The internal recording solution comprised (in mM): 50 CsCl, 60 CsF, 10 NaCl, 20 EGTA, 10 HEPES, pH 7.2 with CsOH, ∼285 mOsm. Medium single-hole planar NPC-16 chips with an average resistance of ∼2.5 MΩ were used. Chip and whole-cell capacitance were fully compensated, and 50% series resistance compensation applied. Recordings were acquired at 50 kHz with the low pass filter set to 10 kHz in PATCHMASTER (HEKA Instruments, NY, United States) and performed at 27°C. Offline analysis was performed using Microsoft Excel, MatLab R2019a (MathWorks) and GraphPad Prism 8 (Molecular Devices).
(§3) To determine half-maximal inhibitory concentrations (IC50), cells were held at −80 mV, stepped to −120 mV for 200 ms followed by 50 ms test depolarization to 0 mV every 2 s for 30 s in the presence of vehicle control (DMSO). The cells were then exposed to an individual phytocannabinoid (CBD, CBGA, CBDVA, CBG, CBCA or CBC) at concentrations between 0.1 and 100 μM, sequentially for 5 min. Currents for individual cells were averaged over 24 s periods directly before application and following a 5 min exposure of compound. Leak subtraction was applied before normalization of current amplitude. Normalized mean data were fit to the Hill equation.

[3] = molecular target: T2, human NaV1.6 channel (SCN8A, CHO cells) (Homo sapiens, UniProt Q9UQD0); test: as above; assay type: cell-based; details: for Effect on peak sodium current (in words): NaV1.6, 0.1–100 μM, no maximal inhibition at 100 µM
T2 construct: expressed in transfected cells
Method: as §1, §2, §3

[4] = molecular target: T3, human NaV1.7 channel (SCN9A, CHO cells) (Homo sapiens, UniProt Q15858); test: as above; assay type: cell-based; details: for Effect on peak sodium current (in words): NaV1.7, 0.1–100 μM, no maximal inhibition at 100 µM
T3 construct: expressed in transfected cells
Method: as §1, §2, §3

[5] = molecular target: T4, human NaV1.2 channel (SCN2A, HEK293T cells) (Homo sapiens, UniProt Q99250); test: as above; assay type: cell-based; details: for Effect on peak sodium current (in words): NaV1.2, 0.1–100 μM, no maximal inhibition at 100 µM
T4 construct: expressed in transfected cells
Method: as §1, §2, §3

[6] = test system: electrically induced seizure model; design: method as in Davis and Hatoum, 1983; details: ref Davis and Hatoum, 1983; cited from earlier work
[7] = molecular target: T1, human NaV1.1 channel (SCN1A, HEK293T cells); test: Planar patch-clamp, biophysical properties (activation, SSFI, recovery from SSFI); assay type: cell-based; details: change vs vehicle DMSO at IC50 concentration (CBD 18.5 μM, CBGA 13.6 μM, CBDVA 50 μM)
Method: as §1, §2
(§4) Voltage protocols were used, as previously described ([Richards et al., 2018]). Briefly, to study the voltage-dependence of activation, cells were held at −120 mV and depolarized to test potentials, in 5 mV increments, between −120 mV and +50 mV for 100 ms. To study steady-state fast inactivation, cells were held at conditioning pre-pulse potentials ranging from −120 mV to +30 mV in 5 mV increments from a holding potential of −120 mV and a test pulse at 5 mV for 20 ms. Recovery from fast inactivation was studied by pre-pulsing the cells to 0 mV from a holding potential of −120 mV for 50 ms, to fully inactivate channels. The voltage was then stepped back to the holding potential for variable interpulse intervals (ipi from 0 to 39 ms in 3 ms increments). To test channel availability, the voltage was stepped to 0 mV for 50 ms.
(§5) To examine the voltage-dependence of activation, normalized current-voltage (I-V) relationships were converted to conductance (G) using the following equation: G = I/(V−V r ) where Vr is the reversal potential for Na^+. The voltage-dependence of conductance and availability were normalized and fitted to a Boltzmann equation: G = 1/(1 + exp [(V−V 0.5)/a]), where a is the slope of the half-maximum, V is the potential of the given pulse, and V 0.5 is the potential for the half-maximal activation/inactivation. The time course of inactivation was fitted to a single exponential function I/Imax = I0+A*exp (-t-t0/τ)+C, where I0 is the non-inactivating component, Imax is the peak current, t is time, and A is the component for the time constant τ. Time constants were plotted against voltage and the data fitted with a decaying exponential equation Y = span*exp (−K*x)+plateau, where span is the starting point of the curve, K is the decay factor, plateau is the value the curve decays to, and x is time. To measure recovery from inactivation, normalized currents were plotted against ipi and data fitted with equation I/I max = 1-exp/(rc + x), where I max is maximal current; rc recovery rate constant; x is time. Peak current (I) was plotted as fractional recovery against the recovery period by normalizing to the maximum current (Imax) during the conditioning potentials.

[8] = molecular target: T2, human NaV1.6 channel (SCN8A, CHO cells); test: as above; assay type: cell-based; details: change vs vehicle DMSO at IC50 concentration (CBD 16.6 μM, CBGA 12.0 μM, CBDVA 24.1 μM)
Method: as §1, §2, §4, §5

[9] = molecular target: T3, human NaV1.7 channel (SCN9A, CHO cells); test: as above; assay type: cell-based; details: change vs vehicle DMSO at IC50 concentration (CBD 11.9 μM, CBGA 16.4 μM, CBDVA 60 μM)
Method: as §1, §2, §4, §5

[10] = molecular target: T4, human NaV1.2 channel (SCN2A, HEK293T cells); test: as above; assay type: cell-based; details: change vs vehicle DMSO at IC50 concentration (CBD 18.4 μM, CBGA 14.7 μM, CBDVA 60 μM)
Method: as §1, §2, §4, §5

[11] = design: method as in Anderson et al., 2019b; details: CBDVA; ref Anderson et al., 2019b; cited from earlier work
sodium channels = test system: sodium channels; design: method as in Hill et al., 2014; Ghovanloo et al., 2022; details: different voltage protocols or model systems; ref Hill et al., 2014; Ghovanloo et al., 2022; read-out: IC50 (low affinity inhibitor of sodium channels); cited from earlier work
[12] = test system: PTZ-induced acute seizure model; design: method as in Hill et al., 2014; details: ref Hill et al., 2014; cited from earlier work

T2 sequence (Q9UQD0 whole entry): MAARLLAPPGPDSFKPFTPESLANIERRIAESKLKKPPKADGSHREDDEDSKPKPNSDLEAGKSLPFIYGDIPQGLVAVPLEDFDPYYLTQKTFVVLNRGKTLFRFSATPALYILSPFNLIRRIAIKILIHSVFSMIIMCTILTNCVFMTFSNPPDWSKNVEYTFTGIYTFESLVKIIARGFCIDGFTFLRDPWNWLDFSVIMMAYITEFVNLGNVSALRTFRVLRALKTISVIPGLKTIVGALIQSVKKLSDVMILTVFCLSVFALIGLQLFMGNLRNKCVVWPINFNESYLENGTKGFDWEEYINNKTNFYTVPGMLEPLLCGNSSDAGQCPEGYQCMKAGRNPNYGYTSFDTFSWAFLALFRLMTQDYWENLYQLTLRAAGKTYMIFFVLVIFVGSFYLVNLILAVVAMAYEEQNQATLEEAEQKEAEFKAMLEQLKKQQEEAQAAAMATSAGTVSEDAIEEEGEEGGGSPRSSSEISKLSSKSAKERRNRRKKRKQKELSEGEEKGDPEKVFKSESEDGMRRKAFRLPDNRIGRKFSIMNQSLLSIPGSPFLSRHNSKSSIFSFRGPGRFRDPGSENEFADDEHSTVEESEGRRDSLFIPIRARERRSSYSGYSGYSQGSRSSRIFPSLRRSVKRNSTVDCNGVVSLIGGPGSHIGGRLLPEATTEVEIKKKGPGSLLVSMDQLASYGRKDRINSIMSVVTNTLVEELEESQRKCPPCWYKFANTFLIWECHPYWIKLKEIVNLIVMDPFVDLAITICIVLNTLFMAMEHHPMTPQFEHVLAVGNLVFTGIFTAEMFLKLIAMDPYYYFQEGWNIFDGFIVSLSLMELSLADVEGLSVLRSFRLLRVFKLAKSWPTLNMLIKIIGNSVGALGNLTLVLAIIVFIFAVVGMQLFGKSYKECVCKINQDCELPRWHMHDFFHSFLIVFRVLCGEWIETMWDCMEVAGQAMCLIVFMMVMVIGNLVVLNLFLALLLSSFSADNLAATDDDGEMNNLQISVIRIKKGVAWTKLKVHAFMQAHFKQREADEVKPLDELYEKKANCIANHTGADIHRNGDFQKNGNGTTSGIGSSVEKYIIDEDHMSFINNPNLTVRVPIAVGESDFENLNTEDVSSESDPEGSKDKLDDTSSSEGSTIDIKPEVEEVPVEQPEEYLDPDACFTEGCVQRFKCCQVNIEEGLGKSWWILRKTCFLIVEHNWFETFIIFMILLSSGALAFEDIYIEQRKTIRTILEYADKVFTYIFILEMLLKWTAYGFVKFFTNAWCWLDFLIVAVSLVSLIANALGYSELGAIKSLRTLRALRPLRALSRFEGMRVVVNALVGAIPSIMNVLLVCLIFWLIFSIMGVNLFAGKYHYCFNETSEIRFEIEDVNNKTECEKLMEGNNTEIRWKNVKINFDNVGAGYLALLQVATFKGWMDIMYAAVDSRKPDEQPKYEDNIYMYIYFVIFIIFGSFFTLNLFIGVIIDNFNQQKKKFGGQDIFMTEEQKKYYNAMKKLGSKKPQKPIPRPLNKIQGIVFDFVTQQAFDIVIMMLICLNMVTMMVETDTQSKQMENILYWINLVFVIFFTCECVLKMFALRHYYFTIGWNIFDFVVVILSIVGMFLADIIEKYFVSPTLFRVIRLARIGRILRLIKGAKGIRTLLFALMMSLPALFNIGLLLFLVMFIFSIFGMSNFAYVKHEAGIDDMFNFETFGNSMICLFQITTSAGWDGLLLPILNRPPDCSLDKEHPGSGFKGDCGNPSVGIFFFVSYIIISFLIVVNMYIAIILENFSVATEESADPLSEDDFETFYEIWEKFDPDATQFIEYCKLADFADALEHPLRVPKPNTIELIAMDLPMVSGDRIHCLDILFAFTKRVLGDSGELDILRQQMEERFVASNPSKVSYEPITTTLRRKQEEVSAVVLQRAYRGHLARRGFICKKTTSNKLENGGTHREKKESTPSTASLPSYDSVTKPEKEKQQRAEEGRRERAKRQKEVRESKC
T3 sequence (Q15858 whole entry): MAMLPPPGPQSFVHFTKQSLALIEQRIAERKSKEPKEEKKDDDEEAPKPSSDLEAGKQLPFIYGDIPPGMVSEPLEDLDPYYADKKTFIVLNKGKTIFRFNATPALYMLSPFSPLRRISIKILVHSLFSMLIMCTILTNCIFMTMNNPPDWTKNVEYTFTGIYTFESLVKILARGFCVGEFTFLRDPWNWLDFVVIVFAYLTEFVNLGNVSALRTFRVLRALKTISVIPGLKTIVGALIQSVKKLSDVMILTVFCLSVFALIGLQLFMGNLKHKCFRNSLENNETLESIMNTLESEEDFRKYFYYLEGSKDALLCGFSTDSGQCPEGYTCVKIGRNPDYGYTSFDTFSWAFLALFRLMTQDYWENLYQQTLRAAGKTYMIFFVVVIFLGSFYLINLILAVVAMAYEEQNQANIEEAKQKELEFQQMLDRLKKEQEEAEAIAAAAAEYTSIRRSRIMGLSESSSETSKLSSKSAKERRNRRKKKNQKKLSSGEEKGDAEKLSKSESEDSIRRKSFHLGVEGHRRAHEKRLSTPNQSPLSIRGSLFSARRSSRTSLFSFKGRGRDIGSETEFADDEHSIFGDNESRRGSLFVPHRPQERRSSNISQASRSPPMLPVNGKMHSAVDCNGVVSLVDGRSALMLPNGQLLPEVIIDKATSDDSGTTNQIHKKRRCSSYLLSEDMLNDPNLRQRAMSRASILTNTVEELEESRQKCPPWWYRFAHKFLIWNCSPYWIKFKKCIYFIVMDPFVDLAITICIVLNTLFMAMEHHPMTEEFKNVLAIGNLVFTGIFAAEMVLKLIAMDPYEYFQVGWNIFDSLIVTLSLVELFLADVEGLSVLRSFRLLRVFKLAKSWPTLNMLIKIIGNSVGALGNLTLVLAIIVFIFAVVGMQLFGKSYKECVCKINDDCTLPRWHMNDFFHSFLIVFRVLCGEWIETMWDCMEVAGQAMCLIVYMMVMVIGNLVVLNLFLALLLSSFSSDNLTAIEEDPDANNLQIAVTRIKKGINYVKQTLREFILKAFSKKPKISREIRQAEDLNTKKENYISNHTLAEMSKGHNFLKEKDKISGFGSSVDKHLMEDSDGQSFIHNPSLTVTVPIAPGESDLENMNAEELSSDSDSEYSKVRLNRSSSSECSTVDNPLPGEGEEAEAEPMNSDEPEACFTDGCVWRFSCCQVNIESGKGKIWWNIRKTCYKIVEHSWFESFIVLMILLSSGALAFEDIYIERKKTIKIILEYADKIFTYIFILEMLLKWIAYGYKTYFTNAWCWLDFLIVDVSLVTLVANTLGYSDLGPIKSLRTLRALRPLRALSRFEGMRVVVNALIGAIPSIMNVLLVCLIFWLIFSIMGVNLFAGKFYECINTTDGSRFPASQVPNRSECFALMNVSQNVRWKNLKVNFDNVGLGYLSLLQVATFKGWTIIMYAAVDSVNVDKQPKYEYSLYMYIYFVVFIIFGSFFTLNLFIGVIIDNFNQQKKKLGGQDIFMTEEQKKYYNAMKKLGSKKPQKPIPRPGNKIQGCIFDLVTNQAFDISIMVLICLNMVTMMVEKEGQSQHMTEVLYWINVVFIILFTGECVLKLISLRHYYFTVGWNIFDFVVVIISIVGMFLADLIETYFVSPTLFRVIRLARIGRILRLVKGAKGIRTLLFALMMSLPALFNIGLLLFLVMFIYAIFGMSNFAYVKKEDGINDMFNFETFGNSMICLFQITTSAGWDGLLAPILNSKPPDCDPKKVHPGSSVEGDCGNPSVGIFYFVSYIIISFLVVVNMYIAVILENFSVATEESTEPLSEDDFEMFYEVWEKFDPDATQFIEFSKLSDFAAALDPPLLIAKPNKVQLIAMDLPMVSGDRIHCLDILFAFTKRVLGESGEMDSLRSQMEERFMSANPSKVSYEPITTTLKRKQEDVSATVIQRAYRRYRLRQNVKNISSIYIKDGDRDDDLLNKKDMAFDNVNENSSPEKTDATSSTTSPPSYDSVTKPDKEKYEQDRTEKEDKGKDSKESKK

In the case of `CCCCCc1cc(O)c2c(c1)OC(C)(CCC=C(C)C)C=C2` (centres unmarked) [CBC, cannabichromene], the “Effect against hyperthermia-induced seizures” value [1] is listed as “anti-convulsant properties”, the “Effect on peak sodium current (in words)” value [2] is listed as “modestly inhibited” and the “Effect on peak sodium current (in words)” value [3] is listed as “modestly inhibited”. For the same compound, the “Effect on peak sodium current (in words)” value [4] was “modestly inhibited”, the “Effect on peak sodium current (in words)” value [5] was “modestly inhibited” and the “Effect in electrically induced seizure model” value [6] was “ineffective”.

In the case of `CCCCCc1cc2c(c(O)c1C(=O)O)C=CC(C)(CCC=C(C)C)O2` (centres unmarked) [CBCA, cannabichromenic acid], the “Effect against hyperthermia-induced seizures” value [1] is listed as “anti-convulsant properties”, the “Effect on peak sodium current (in words)” value [2] is listed as “modestly inhibited” and the “Effect on peak sodium current (in words)” value [3] is listed as “modestly inhibited”. The “Effect on peak sodium current (in words)” value [4] was “modestly inhibited” and the “Effect on peak sodium current (in words)” value [5] was “modestly inhibited”.

For `C=C(C)[C@@H]1CCC(C)=C[C@H]1c1c(O)cc(CCC)c(C(=O)O)c1O` [CBDVA, cannabidivarinic acid], the “Effect against hyperthermia-induced seizures” value [1] is given as “anti-convulsant properties”, the “Inactivation △ V0.5 inact” value ([7]; SSFI) is given as −10.1 ± 2.3** mV and the “Inactivation △ slope factor” value ([7]; SSFI) is given as 1.8 ± 0.3***. The “Activation △ Slope factor” value [7] was 1.7 ± 0.4***, the “Activation △ V0.5 act” value [7] was 13.0 ± 1.6**** mV and the “Inactivation △ τinact SSFI at 5 mV” value [7] was 0.4 ± 0.05****. The “Inactivation △ V0.5 inact” value ([8]; SSFI) was −3.0 ± 1.3* mV, the “Inactivation △ slope factor” value ([8]; SSFI) was 0.5 ± 0.3 and the “Activation △ Slope factor” value [8] was 1.9 ± 0.7*. For the same compound, the “Activation △ V0.5 act” value [8] was 10.4 ± 2.9** mV, the “Inactivation △ τinact SSFI at 5 mV” value [8] was 0.3 ± 0.09** and the “Inactivation △ V0.5 inact” value ([9]; SSFI) was −4.1 ± 0.9*** mV. The “Inactivation △ slope factor” value ([9]; SSFI) was 1.6 ± 0.3****, the “Activation △ Slope factor” value [9] was 0.9 ± 0.2*** and the “Activation △ V0.5 act” value [9] was 8.7 ± 1.8*** mV. The “Inactivation △ τinact SSFI at 5 mV” value [9] was 0.3 ± 0.07**, the “Inactivation △ V0.5 inact” value ([10]; SSFI) was −2.3 ± 1.5 mV and the “Inactivation △ slope factor” value ([10]; SSFI) was 1.0 ± 0.2***. For the same compound, the “Activation △ Slope factor” value [10] was 0.9 ± 0.2****, the “Activation △ V0.5 act” value [10] was 11.5 ± 1.5**** mV and the “Inactivation △ τinact SSFI at 5 mV” value [10] was 0.4 ± 0.06****. The “Effect on peak sodium current (in words)” value [2] was “only partially inhibited”, the “Slope (Hill slope coefficient)” value ([3]; NaV1.6 concentration-response, mean ± SEM) was 2.1 ± 0.5 and the IC50 ([3]; NaV1.6 peak current, 0.1–100 µM, 5 min exposure, mean ± SEM) was 24.1 ± 1.2 µM. The “Effect on peak sodium current (in words)” value [4] was “only partially inhibited”, the IC50 ([4]; NaV1.7 peak current, 0.1–100 µM, 5 min exposure, mean ± SEM) was ≥ 60 µM and the “Effect on peak sodium current (in words)” value [5] was “only partially inhibited”. The IC50 ([5]; NaV1.2 peak current, 0.1–100 µM, 5 min exposure, mean ± SEM) was ≥ 60 µM and the “Estimated brain concentration attained at anti-convulsant doses” value [11] was 5.5 µM.

In the case of `CCCCCc1cc(O)c(C/C=C(\C)CCC=C(C)C)c(O)c1` [CBG, cannabigerol], the IC50 (sodium channels) is given as 2 to 22 µM, the “Effect against hyperthermia-induced seizures” value [1] is given as “ineffective” and the “Anti-convulsant effect in PTZ-induced acute seizure model” value [12] is given as “ineffective”. For the same compound, the “Effect on peak sodium current (in words)” value [2] was “modestly inhibited”, the “Effect on peak sodium current (in words)” value [3] was “modestly inhibited” and the “Effect on peak sodium current (in words)” value [4] was “modestly inhibited”. For the same compound, the “Effect on peak sodium current (in words)” value [5] was “modestly inhibited”.

— article PMC9986306, “Beyond CBD: Inhibitory effects of lesser studied phytocannabinoids on human voltage-gated sodium channels” (Frontiers in Physiology, 2023)
